This is an account of results in paper PMC10096163, “Structural Insights and Intermolecular Energy for Some Medium and Long-Chain Testosterone Esters” (Molecules, 2023).

Converted amounts (≈) assume the structure as drawn. Where two headings read alike, the source gives them in different places.

A short description of data set [1]: Solubility of esters in benzyl alcohol / benzyl benzoate / oil mixtures. The note with it: for solubility: oil or lipid, thermodynamic from solid. It counts as physicochemical. The protocol:
The esters’ solubility (mg/mL) was evaluated in mixtures which included different solvents and organic oils, such as medium-chain triglyceride (MCT), apricot, grape seed (GSO), castor, cottonseed, […] sesame oil.
The solutions contained mixtures of benzyl alcohol, benzyl benzoate and oil, with a volumetric ratio of 2% benzyl alcohol, 20% benzyl benzoate and 78% oil. Numerous pharmaceuticals of various lipophilic agents (various steroids were included) use benzyl benzoate as a co-solvent/solubilizer; benzyl alcohol behaves as well as a solvent and inhibits the microbial growth, and meanwhile the oils act as carriers.
In certain cases, an excess of raw samples remained undissolved (in suspension) and small quantities of mixtures were added, ensuring that the resulting solutions became homogenous, clear and transparent. Three measurements were taken to improve accuracy, and their average value was used.

For data set [2] the following is noted: cited from earlier work.
On the set-up of data set [3]: method as in PMID 36295310. The following applies: short esters, previously reported; cited from earlier work.
Setting [4] is: 14 °C, 2% benzyl alcohol, 20% benzyl benzoate, 78% medium-chain triglyceride, 14 °C, average of three measurements, read-out: Solubility MCT.
The mark [5] stands for this setting: 14 °C, average over the six oil mixtures, 14 °C, read-out: Average solubility.
The mark [6] stands for this setting: benzyl alcohol / benzyl benzoate / apricot oil mixture, 14 °C, 2% benzyl alcohol, 20% benzyl benzoate, 78% apricot oil, 14 °C, average of three measurements, read-out: Solubility APRICOT.
[7] abbreviates: benzyl alcohol / benzyl benzoate / castor oil mixture, 14 °C, 2% benzyl alcohol, 20% benzyl benzoate, 78% castor oil, 14 °C, average of three measurements, read-out: Solubility CASTOR.
The mark [8] stands for this setting: benzyl alcohol / benzyl benzoate / cottonseed oil mixture, 14 °C, 2% benzyl alcohol, 20% benzyl benzoate, 78% cottonseed oil, 14 °C, average of three measurements, read-out: Solubility COTTON.
[9] abbreviates: benzyl alcohol / benzyl benzoate / grape seed oil mixture, 14 °C, 2% benzyl alcohol, 20% benzyl benzoate, 78% grape seed oil, 14 °C, average of three measurements, read-out: Solubility GSO.
Where [10] appears, read: benzyl alcohol / benzyl benzoate / sesame oil mixture, 14 °C, 2% benzyl alcohol, 20% benzyl benzoate, 78% sesame oil, 14 °C, average of three measurements, read-out: Solubility SESAME.
[11] abbreviates: esterified form, intramuscular or subcutaneous injection.

Turning to `C[C@]12CC[C@H]3[C@@H](CCC4=CC(=O)CC[C@@]43C)[C@@H]1CC[C@@H]2OC(=O)CCC1CCCC1` [TCyp, Androst-4-en-17β-ol-3-one 17β-cyclopentylpropionate], the solubility was 257 mg/mL (≈ 623 mM) in data set [1] (setting [4]); approximately 255 mg/mL (≈ 618 mM) in data set [1] (setting [5]); 238 mg/mL (≈ 576 mM) in data set [1] (setting [6]); 287 mg/mL (≈ 695 mM) in data set [1] (setting [7]); 236 mg/mL (≈ 573 mM) in data set [1] (setting [8]); 239 mg/mL (≈ 580 mM) in data set [1] (setting [9]). In data set [1] (setting [10]), the solubility turned out to be 278 mg/mL (≈ 674 mM).

Consider `CCCCCCCCCC(=O)OC1CCC2C3CCC4=CC(=O)CCC4(C)C3CCC12C` (stereo not drawn) [TDec, Androst-4-en-17β-ol-3-one 17β-decanoate], for which the solubility was 597 mg/mL (≈ 1350 mM) in data set [1] (setting [4]); 534 mg/mL (≈ 1210 mM) in data set [1] (setting [5]); 537 mg/mL (≈ 1210 mM) in data set [1] (setting [6]); 530 mg/mL (≈ 1200 mM) in data set [1] (setting [7]); 496 mg/mL (≈ 1120 mM) in data set [1] (setting [8]); 497 mg/mL (≈ 1120 mM) in data set [1] (setting [9]). Moreover, the solubility in data set [1] (setting [10]) worked out at 549 mg/mL (≈ 1240 mM). Further, the “Solubility fold greater than the other esters” value in data set [1] (TDec compared with TCyp and TUnd, average solubility) is given as 2.5–3 fold.

For `C[C@]12CC[C@H]3[C@@H](CCC4=CC(=O)CC[C@@]43C)[C@@H]1CC[C@@H]2O` [Testosterone, 17β-Hydroxyandrost-4-en-3-one], the Half-life result in data set [2] (non-esterified testosterone) is listed as “a few hours”.

Consider `CC(C)CCC(=O)O[C@H]1CC[C@H]2[C@@H]3CCC4=CC(=O)CC[C@]4(C)[C@H]3CC[C@]12C` [isocaproate], for which the “Solubility, averaging” value in data set [3] was 447 mg/mL (≈ 1160 mM).

Take `CC(=O)O[C@H]1CC[C@H]2[C@@H]3CCC4=CC(=O)CC[C@]4(C)[C@H]3CC[C@]12C` [testosterone acetate]: the “Solubility, averaging” value in data set [3] is 110 mg/mL. Also, in data set [2] (setting [11]), the Half-life result is “less than 24 h”.

For the molecule “Androst-4-en-17β-ol-3-one 17β-undecanoate [TUnd]”, in data set [1] (2% benzyl alcohol, 20% benzyl benzoate, 78% apricot oil, 14 °C, average of three measurements), the “Solubility APRICOT” value is 200.1 mg/mL. Besides, the “Solubility CASTOR” value in data set [1] (2% benzyl alcohol, 20% benzyl benzoate, 78% castor oil, 14 °C, average of three measurements) came to 196.3 mg/mL. Besides, the “Solubility COTTON” value in data set [1] (2% benzyl alcohol, 20% benzyl benzoate, 78% cottonseed oil, 14 °C, average of three measurements) is 195.5 mg/mL. Also, in data set [1] (2% benzyl alcohol, 20% benzyl benzoate, 78% grape seed oil, 14 °C, average of three measurements), the “Solubility GSO” value turned out to be 183.1 mg/mL. In addition, the “Solubility MCT” value in data set [1] (2% benzyl alcohol, 20% benzyl benzoate, 78% medium-chain triglyceride, 14 °C, average of three measurements) is 201.8 mg/mL. Also, in data set [1] (2% benzyl alcohol, 20% benzyl benzoate, 78% sesame oil, 14 °C, average of three measurements), the “Solubility SESAME” value is given as 209.1 mg/mL. For the same molecule, the Average solubility result in data set [1] (average over the six oil mixtures, 14 °C) is on record as “roughly 197 mg/mL”. For the same molecule, the Half-life entry in data set [2] (setting [11]) is on record as “up to 36 days”.
